Marks after values point to notes of the source that are not given here.
Legend:
Type in all cases: in vivo, BALB/cAnNRj mice
active caspase-3 = experiment: Indirect immunohistochemistry of active caspase-3 in organ cryosections
Serum parameter analysis = experiment: Serum parameter analysis
Blood parameter analysis = experiment: Blood parameter analysis
[1] = cisplatin 20 mg/kg BW i.p. once, day 3, n = 3, mean ± SD
[2] = cisplatin 20 mg/kg BW i.p. once, d1, mean, n = 3
[3] = cisplatin 20 mg/kg BW i.p. once, d2, mean, n = 8
[4] = cisplatin 20 mg/kg BW i.p. once, d2, mean, n = 9
[5] = cisplatin 20 mg/kg BW i.p. once, d3, mean, n = 4
[6] = cisplatin 20 mg/kg BW i.p. once, d2, mean, n = 12
[7] = cisplatin 20 mg/kg BW i.p. once, d3, mean, n = 5
[8] = doxorubicin 4 mg/kg BW i.p. day 0, 7, 14, day 15, n = 3, mean ± SD
[9] = doxorubicin 4 mg/kg BW i.p. day 0, 7, 14, day 15, n = 4, mean ± SD
[10] = doxorubicin 4 mg/kg BW i.p., d8, mean, n = 3
[11] = doxorubicin 4 mg/kg BW i.p., d15, mean, n = 4
[12] = busulfan 18.8 mg/kg i.p. day 0, 2, 4, day 5, n = 5, mean ± SD
[13] = busulfan 18.8 mg/kg i.p., d3, mean, n = 6
[14] = busulfan 18.8 mg/kg i.p., d5, mean, n = 10
[15] = busulfan 18.8 mg/kg i.p., d5, mean, n = 11

For `N.N.[Cl][Pt][Cl]` [Cisplatin], the “caspase-3 activation, kidneys” value (active caspase-3; cisplatin 20 mg/kg BW i.p. once, day 2, n = 3, mean ± SD) was 1.0 ± 0.1 % area, the “caspase-3 activation, liver” value (active caspase-3; [1]) was 4.3 ± 0.7 % area and the “caspase-3 activation, lungs” value (active caspase-3; [1]) was 0.5 ± 0.1 % area. The “caspase-3 activation, spleen” value (active caspase-3; cisplatin 20 mg/kg BW i.p. once, day 3, n = 4, mean ± SD) was 10.5 ± 4.8 % area, the ALT (Serum parameter analysis; [2]) was 58 U/L and the AST (Serum parameter analysis; [2]) was 122 U/L. The CK (Serum parameter analysis; [2]) was 180.7 U/L, the Creatinine (Serum parameter analysis; [2]) was 16.67 µmol/L and the Urea (Serum parameter analysis; [2]) was 6.32 mmol/L. For the same compound, the ALT (Serum parameter analysis; [3]) was 88.88 U/L, the AST (Serum parameter analysis; [3]) was 200* U/L and the CK (Serum parameter analysis; [4]) was 372.6 U/L. For the same compound, the Creatinine (Serum parameter analysis; [4]) was 27.67** µmol/L, the Urea (Serum parameter analysis; [4]) was 15.09* mmol/L and the ALT (Serum parameter analysis; [5]) was 63.5 U/L. For the same compound, the AST (Serum parameter analysis; [5]) was 183.8 U/L, the CK (Serum parameter analysis; [5]) was 586.3* U/L and the Creatinine (Serum parameter analysis; [5]) was 22.25 µmol/L. The Urea (Serum parameter analysis; [5]) was 11.08 mmol/L, the HCT (Blood parameter analysis; [2]) was 43.5** % and the HGB (Blood parameter analysis; [2]) was 15.9* g/dL. The PLT (Blood parameter analysis; [2]) was 797 10^3/µl, the RBC (Blood parameter analysis; [2]) was 10.23 10^6/µl and the WBC (Blood parameter analysis; [2]) was 5.63 10^3/µl. The HCT (Blood parameter analysis; [6]) was 40.5%, the HGB (Blood parameter analysis; [6]) was 15.08 g/dL and the RBC (Blood parameter analysis; [6]) was 9.45 10^6/µl. For the same compound, the WBC (Blood parameter analysis; [6]) was 4.85** 10^3/µl, the HCT (Blood parameter analysis; [7]) was 41.6% and the HGB (Blood parameter analysis; [7]) was 15.38 g/dL. For the same compound, the PLT (Blood parameter analysis; [7]) was 1147** 10^3/µl, the RBC (Blood parameter analysis; [7]) was 9.81e+06 µL⁻¹ and the WBC (Blood parameter analysis; [7]) was 3.68** 10^3/µl.

With `COc1cccc2c1C(=O)c1c(O)c3c(c(O)c1C2=O)C[C@@](O)(C(=O)CO)C[C@@H]3O[C@H]1C[C@H](N)[C@H](O)[C@H](C)O1` [Doxorubicin] the “caspase-3 activation, liver” value (active caspase-3; [8]) was 3.5 ± 1.5 % area, the “caspase-3 activation, lungs” value (active caspase-3; [8]) was 0.7 ± 0.1 % area and the “caspase-3 activation, heart” value (active caspase-3; [9]) was 2.2 ± 0.7 % area. The “caspase-3 activation, kidneys” value (active caspase-3; [9]) was 1.1 ± 0.3 % area, the “caspase-3 activation, lungs” value (active caspase-3; doxorubicin 4 mg/kg BW i.p., day 8, n = 3, mean ± SD) was 0.6 ± 0.2 % area and the ALT (Serum parameter analysis; [10]) was 90.33** U/L. The AST (Serum parameter analysis; [10]) was 94.67 U/L, the CK (Serum parameter analysis; [10]) was 109.7 U/L and the Creatinine (Serum parameter analysis; [10]) was 15.33* µmol/L. It also gave a Urea (Serum parameter analysis; [10]) of 7.73 mmol/L, an ALT (Serum parameter analysis; [11]) of 52.25 U/L and an AST (Serum parameter analysis; [11]) of 96.5 U/L. For the same compound, the CK (Serum parameter analysis; [11]) was 195.3* U/L, the Creatinine (Serum parameter analysis; [11]) was 16.25** µmol/L and the Urea (Serum parameter analysis; [11]) was 7 mmol/L. The HCT (Blood parameter analysis; [10]) was 41.2%, the PLT (Blood parameter analysis; [10]) was 1011 10^3/µl and the RBC (Blood parameter analysis; [10]) was 9.62 10^6/µl. For the same compound, the WBC (Blood parameter analysis; [10]) was 9.2 10^3/µl, the HCT (Blood parameter analysis; [11]) was 34.1*** % and the PLT (Blood parameter analysis; [11]) was 1.106e+06 µL⁻¹. The RBC (Blood parameter analysis; [11]) was 7.98*** 10^6/µl and the WBC (Blood parameter analysis; [11]) was 6.5 10^3/µl.

For `CS(=O)(=O)OCCCCOS(C)(=O)=O` [Busulfan], the “caspase-3 activation, liver” value (active caspase-3; [12]) was 3.0 ± 0.1 % area, the “caspase-3 activation, lungs” value (active caspase-3; [12]) was 0.4 ± 0.1 % area and the ALT (Serum parameter analysis; [13]) was 55.33 U/L. For the same compound, the AST (Serum parameter analysis; [13]) was 82.5 U/L, the CK (Serum parameter analysis; [13]) was 141.5 U/L and the Creatinine (Serum parameter analysis; [13]) was 11.17 µmol/L. It also gave a Urea (Serum parameter analysis; [13]) of 7.81 mmol/L, an ALT (Serum parameter analysis; [14]) of 87.1 U/L and an AST (Serum parameter analysis; [14]) of 84.4 U/L. The CK (Serum parameter analysis; [14]) was 160.2 U/L, the Creatinine (Serum parameter analysis; [14]) was 12.6 µmol/L and the Urea (Serum parameter analysis; [14]) was 7.19 mmol/L. For the same compound, the HCT (Blood parameter analysis; [13]) was 42.0%, the HGB (Blood parameter analysis; [13]) was 15.2 g/dL and the PLT (Blood parameter analysis; [13]) was 849.3 10^3/µl. The RBC (Blood parameter analysis; [13]) was 9.79 10^6/µl, the WBC (Blood parameter analysis; [13]) was 4730 µL⁻¹ and the HCT (Blood parameter analysis; [15]) was 35.2%. The HGB (Blood parameter analysis; [15]) was 13.3 g/dL, the PLT (Blood parameter analysis; [15]) was 1.175e+06 µL⁻¹ and the RBC (Blood parameter analysis; [15]) was 8.32 10^6/µl. The WBC (Blood parameter analysis; [15]) was 4940 µL⁻¹.

— doi:10.1101/630459v1 (bioRxiv, 2019)
